Assay results taken from US8822491B2, “Methods and compositions for treating β-thalassemia and sickle cell disease” (Academia Sinica, priority 2011, dated 2014).
Where two headings read alike, the source gives them in different places.

How the values were obtained:
Format in all cases: cell-based
γ globin mRNA = assay: Real time RT-PCR of γ globin mRNA in primary human erythroid cultures; parameters: expression level of the fetal γ globin gene: dose or concentration left out as unconfirmed
Procedure: (§1) Mouse erythroleukemic (MEL) cells, an adult erythroid cell line (Friend, et al. (1971) Proc Natl Acad Sci USA 68:378-82), were maintained in DMEM medium (Gibco) supplemented with 10% FBS and 1% penicillin-streptomycin, in 37° C. chamber under a 5% CO2 humidified atmosphere. For establishing stable cell lines, transfection of the reporter pmLAR-Gp-DsRed-Bp-d2EGFP into MEL cells was carried out using the Neon™ transfection system (Invitrogen). 2×10^6 MEL cells were transfected with 5 μg of the plasmid. Following microporation, the MEL cells were seeded in 10 ml antibiotics-free DMEM for 24 hrs and selected with […] of neomycin for one month. The primary human erythroid culture was initiated by maintaining the purified mononuclear cells in SFEM medium with 1× cc100 cytokine mix (StemSpan) for 7 days. The cells were then kept in the differentiation medium (SFEM with 20 ng/ml SCF, 1 U/ml EPO, 5 ng/ml IL-3, 2 micromolar dexamethasone) for another 7 days at a density of 0.1−1×10^6 cells/ml. The cells were treated with chemical compound at day 7 post-differentiation and then harvested for further analysis after 3 days of compound treatment.
(§2) Total RNAs were isolated with use of the RNAspin Mini kit (GE Healthcare). cDNA synthesis was carried out using SuperScript II reverse transcriptase (Invitrogen). Quantitative RT-PCR was performed using the SYBR Green PCR Master Mix (Applied Biosystems) and ABI 7500 real-time System. All data were analyzed after normalization to the expression level of the mouse or human […] gene.

NF-E4 = assay: Real-time RT-PCR of NF-E4 expression in primary human erythroid cultures; conditions: different concentrations of STO-609, 3 days, FIG. 7B
Procedure: (§3) Primary human erythroid cultures were treated with 0.25 μM of compound A, and the relative expression levels of different transcription factors were then determined by real-time RT-PCR analysis. The white bars indicate the expression levels of mock control set as 1. The black bars are the relative expression levels in compound A-treated cells.
(§4) Mouse erythroleukemic (MEL) cells, an adult erythroid cell line (Friend, et al. (1971) Proc Natl Acad Sci USA 68:378-82), were maintained in DMEM medium (Gibco) supplemented with 10% FBS and 1% penicillin-streptomycin, in 37° C. chamber under a 5% CO2 humidified atmosphere. For establishing stable cell lines, transfection of the reporter pmLAR-Gp-DsRed-Bp-d2EGFP into MEL cells was carried out using the Neon™ transfection system (Invitrogen). 2×10^6 MEL cells were transfected with 5 μg of the plasmid. Following microporation, the MEL cells were seeded in 10 ml antibiotics-free DMEM for 24 hrs and selected with […] of neomycin for one month. […]
as §2

c-Myb = assay: Real-time RT-PCR of c-Myb expression in primary human erythroid cultures; conditions: different concentrations of STO-609, 3 days, FIG. 7D
Procedure: Dosage effects of STO-609 on the proliferation and γ/β globin gene expression of differentiated human erythroid progenitor cells were analyzed as described for compounds A-F. The differentiated primary cultured erythroid cells were treated with different concentrations of STO-609 for 3 days. (A) Relative induction of β (white bars) and γ globin mRNAs (black bars) was determined by real time RT-PCR analysis. The proliferation curve of the cells is shown with the mock control being 100%. (B) Relative expression levels of NF-E4 were determined by real time RT-PCR analysis and shown by the grey bars. (C) Relative expression levels of Bcl11a in response to treatments with different concentrations of STO-609 are shown (white bars). (D) Relative expression levels of c-Myb in cells treated with different concentrations of STO-609 are shown (black bars). The mock control is set as 1. […]
as §2

Bcl11a = assay: Real-time RT-PCR of Bcl11a expression in primary human erythroid cultures; conditions: different concentrations of STO-609, 3 days, FIG. 7C
Procedure: as §3, §4, §2

β globin mRNA = assay: Real time RT-PCR of β globin mRNA in primary human erythroid cultures; parameters: dose or concentration left out as unconfirmed; conditions: STO-609, 3 days, FIG. 7A
Procedure: as §1, with “The cells were treated with chemical compound at day 7 post-differentiation and then harvested for further analysis after 3 days of compound treatment.” left out
as §2

[1] = system: human erythroid progenitor cells; assay: Cell proliferation (alamar Blue) of differentiated primary human erythroid cells; conditions: for IC50: Erythroid progenitor cell, 72 h, read-out: IC50 (concentration at which the cell proliferation rate is reduced by 50%)
Procedure: FIG. 3 illustrates induction of the endogenous globin genes in the primary culture of human erythroid progenitor cells by compound A. (A) Dosage effect of compound A in the differentiated human erythroid progenitor cells. The differentiated primary cultured cells were treated with different concentrations of compound A for 3 days. Total mRNA was extracted, and relative induction of the β and γ globin mRNAs was determined by real time RT-PCR analysis. The cell proliferation abilities were determined with use of alamar Blue reagent (mock control as 100%). The white bars indicated the relative expression levels of β-globin. The gray bars represent the relative levels of γ-globin mRNA. (B) Comparison of γ and β globin gene expression patterns in primary erythroid cultured cells treated with different fetal globin inducing agents. […] The total RNAs were then isolated for real time RT-PCR analysis. Relative induction of the β globin gene (white bars) and the γ globin gene (grey bars) was then determined.
IC50 values are the concentrations of the individual compounds at which the cell proliferation rates are reduced by 50%.
as §1

[2] = system: mouse embryonic εy globin mRNA; assay: Real-time RT-PCR of endogenous embryonic globin mRNA in MEL cells
Procedure: 5×10^4 MEL cells carrying the dual fluorescence reporter were seeded on optical Packard 96-well view plates, treated with […] of the individual compound for 3 days, and primary screened for their DsRed intensity with use of the Wallac Victor3 1420 multilabel counter (Ex: 550/9; Em: 620). The secondary screenings were performed using a digital image detector, Cellomics Arrayscan 3.0 system, which doubly confirmed the intracellular DsRed fluorescence induced by the compound treatment. The endogenous globin gene expression patterns in the positive MEL cells from the primary and secondary screens as well as in compound-treated primary human erythroid cultures were subsequently identified by real time RT-PCR analysis.
as §2

[3] = different concentrations of compound A, 3 days, FIG. 3A
[4] = differentiated human primary erythroid cells, 3 days

## CC(=O)O.O=C(O)c1ccc2c3c1cccc3c(=O)n1c3ccccc3nc21 [STO-609, 7-oxo-7H-benzimidazo[2,1-a]benz[de]isoquinoline-3-carboxylic acid acetate]
γ globin mRNA; STO-609, 3 days, FIG. 7A
  concentration at which the fetal γ globin gene expression was elevated: ≥ 50 µM
  expression level of the fetal γ globin gene: elevated
γ globin mRNA; survey of compounds with the benzo[de]benzo[4,5]imidazo[2,1-a]isoquinolin-7-one core
  ability to induce fetal γ globin expression: displays the fetal γ globin-inducting capability
NF-E4
  transcription of the γ globin gene activator NF-E4: up-regulation
c-Myb
  transcript of c-Myb: significantly reduced
Bcl11a
  expression level of the γ globin gene repressor Bcl11a: down-regulated
β globin mRNA
  expression level of the adult β globin gene (elevated?): but not the adult β globin

## O=C(O)c1ccc(C(=O)O)c2c(-c3ccc4c(=O)n5c6ccccc6nc5c5ccc(C(=O)O)c3c45)ccc(C(=O)O)c12 [compound A, 8-(3-Carboxy-7-oxo-7H-benzo[de]benzo[4,5]imidazo[2,1-a]isoquinolin-4-yl)-naphthalene-1,4,5-tricarboxylic acid]
γ globin mRNA; compound A […] vs TSA 0.33 μM, HU 100 μM, NaB 0.5 mM, 3 days, FIG. 3B
  γ-globin induction fold compared to TSA, hydroxyurea and sodium butyrate: highest γ-globin induction fold
γ globin mRNA; [3]
  relative expression level of the γ globin gene as a function of concentration: significantly increased
[1]; [4]
  IC50: 0.2 µM
[1]; [3]
  proliferation rates of the cells: in reverse relationship with the concentration of compound A
[2]
  induction of endogenous mouse embryonic εy globin mRNA expression level: more than 10 fold

## O=c1c2cccc3cccc(c32)c2nc3ccccc3n12 [compound B, Benzo[de]benzo[4,5]imidazo[2,1-a]isoquinolin-7-one]
[1]; [4]
  IC50: 21.8 µM

## O=c1c2cccc3c(Cl)ccc(c32)c2nc3ccccc3n12 [compound C, 3-Chloro-benzo[de]benzo[4,5]imidazo[2,1-a]isoquinolin-7-one]
[1]; [4]
  IC50: 75.2 µM

## O=C(O)c1ccc2c(=O)n3c4ccccc4nc3c3ccc(C(=O)O)c1c23 [compound F, 7-Oxo-7H-benzo[de]benzo[4,5]imidazo[2,1-a]isoquinoline-3,4-dicarboxylic acid]
[1]; [4]
  IC50: 103 µM

## NC(=O)NO [hydroxyurea]
[1]; [4]
  IC50: 146 µM

## CCCC(=O)[O-].[Na+] [sodium butyrate]
[1]; Homo sapiens
  IC50: 222 µM
